Here are results for 30 molecules from ChEMBL document CHEMBL1151137, “Natural products as a source of potential cancer chemotherapeutic and chemopreventive agents” (1990).

One assay has as its system A549. In words: Cytotoxicity against human A549 cells. Format: functional. The conditions noted are these: read-out: ED50 (the source's name).
The test system of a further assay is MCF7. Put plainly: Cytotoxicity against human MCF7 cells. Format: functional. The conditions noted are these: read-out: ED50 (the source's name).
Another assay has as its system HT-29. Put plainly: Cytotoxicity against human HT-29 cells. In kind it is functional. The conditions noted are these: for EC50: Homo sapiens, HT-29, read-out: ED50 (the source's name).
Assay [1] in a line: Cytotoxicity against human 9KB cells. In kind it is functional. The following applies: read-out: ED50 (the source's name).
Assay [2] in a line: Cytotoxicity against mouse 9PS cells. Format: functional. The following applies: for EC50: Mus musculus, read-out: ED50 (the source's name).
A short description of assay [3]: Chemopreventive activity in Chinese hamster embryonic cells assessed as inhibition of benzo[a]pyrene metabolism to water soluble derivatives. Format: functional, Cricetulus griseus. The conditions noted are these: for IC50: Cricetulus griseus, read-out: ID50 (the source's name).
The test system of assay [4] is P388. Put plainly: In vivo antitumor activity against mouse P388 cells at 20 mg/kg relative to control. Format: functional.
The test system of assay [5] is P388. Put plainly: In vivo antitumor activity against mouse P388 cells at 50 mg/kg relative to control. In kind it is functional.
A short description of assay [6]: Chemopreventive activity in Chinese hamster embryonic cells assessed as inhibition of benzo[a]pyrene metabolism at 10 to 25 ug/ml. In kind it is functional, Cricetulus griseus.

≈ marks a conversion by molar mass, not a printed value.

Turning to `COc1cc2c(c3oc4c(O)cccc4c(=O)c13)[C@@H]1OC[C@@](C)(O)[C@@H]1O2` [PSOROFEBRIN], the results for the EC50 in the assay on A549, in the assay on MCF7 and in the assay with HT-29 were more than 10 µg/mL, more than 10 µg/mL and 8.5 µg/mL (≈ 23.9 µM), respectively.

Consider `COc1cc2c(c3oc4c(O)cccc4c(=O)c13)C[C@H]([C@](C)(O)CO)O2`, for which the EC50 with A549 is more than 10 µg/mL; with MCF7, more than 10 µg/mL; in the assay with HT-29, 2.3 µg/mL (≈ 6.42 µM).

As to `COc1cc(C2Oc3ccc4c(=O)c5c(O)cc(O)cc5oc4c3OC2CO)cc(OC)c1O` (centres undefined), the figures for the EC50 in the assay on A549, with MCF7 and in the assay on HT-29 were 3 µg/mL (≈ 6.4 µM), more than 10 µg/mL and 0.4 µg/mL (≈ 0.854 µM), respectively.

On to `COc1cc(O)c2c3c1-c1c(O)cccc1[C@@H]1Oc4ccccc4[C@@H](CC2=O)[C@@H]31` [OHIOENSIN C], for which the EC50 in assay [1] was 10 µg/mL (≈ 25.9 µM); with A549, more than 10 µg/mL; with MCF7, 3 µg/mL (≈ 7.76 µM); in assay [2], more than 10 µg/mL; in the assay with HT-29, 4 µg/mL (≈ 10.4 µM).

For `COc1cc(C2Oc3c(OC)cc4c(=O)c5ccccc5oc4c3OC2CO)ccc1O` (centres undefined), the EC50 in the assay with A549 was 3 µg/mL (≈ 6.87 µM); in the assay with MCF7, more than 10 µg/mL; in the assay on HT-29 it was 3 µg/mL (≈ 6.87 µM).

Regarding `O=c1cc(-c2ccccc2)oc2cc(O)cc(O)c12` [CHRYSIN], in assay [3], the IC50 was found to be 12 µg/mL (≈ 47.2 µM).

As to `COc1ccc2c(c1O)-c1c(OC)cc(O)c3c1[C@@H]1[C@H](CC3=O)c3ccccc3O[C@@H]21` [OHIOENSIN E], the EC50 in [1] was more than 10 µg/mL; with A549 it was 6 µg/mL (≈ 14.4 µM); in the assay with MCF7, more than 10 µg/mL; in assay [2], 1 µg/mL (≈ 2.4 µM); with HT-29, more than 10 µg/mL.

`CC(C)c1oc(=O)cc2c1[C@@H](O)[C@H]1OC(=O)[C@@]3(C)[C@@H](O)[C@H]4O[C@H]4[C@@]2(C)[C@@H]13` [NAGILACTONE C]: the T/C (in general, the result in the treated group divided by that in the control group, in per cent) with P388 [4] was 145%.

In the case of `CCCCCCCCCCCC[C@@H](O)[C@H]1CC[C@H]([C@H](O)CCCC[C@H](O)CCCCC[C@@H](O)CC2=CC(C)OC2=O)O1` (some centres undefined) [ANNONACIN], the EC50 was 0.001 µg/mL (≈ 0.00168 µM) in the assay on A549 and 3 µg/mL (≈ 5.03 µM) in the assay on HT-29. The same molecule returned an ED50 in assay [2] of 1 ×10⁻⁵ ug/ml.

In the case of `CCCCCCCCCCCC[C@H](O)[C@@H]1CC[C@@H]([C@@H](O)CCCCC(O)CCCCCC2CC(CC(C)=O)C(=O)O2)O1` (some centres undefined) [ISOANNONACIN], the EC50 in the assay on A549 was 0.02 µg/mL (≈ 0.0335 µM); in assay [2], 3 µg/mL (≈ 5.03 µM); with HT-29, 0.002 µg/mL (≈ 0.00335 µM).

Regarding `O=c1cc(-c2ccc(O)cc2)oc2cc(O)cc(O)c12` [APIGENIN], the IC50 in assay [3] came to 17 µg/mL (≈ 62.9 µM).

Regarding `COc1cc(C2Oc3c(OC)cc4c(=O)c5c(OC)cccc5oc4c3OC2CO)cc(OC)c1O` (centres undefined), the EC50 with A549, in the assay with MCF7 and with HT-29 was more than 10 µg/mL each time.

`COc1cc(C2Oc3c(OC)cc4c(=O)c5c(OC)cccc5oc4c3OC2COC(C)=O)ccc1O` (centres undefined): the EC50 in the assay on A549 was 4 µg/mL (≈ 7.87 µM); in the assay with MCF7, more than 10 µg/mL; with HT-29, 4 µg/mL (≈ 7.87 µM).

On to `COc1ccc(-c2cc(=O)c3c(O)cc(O)cc3o2)cc1` [ACACETIN], for which the IC50 in assay [3] is 15 µg/mL (≈ 52.8 µM).

Take `O=C1C[C@@H]2c3ccccc3O[C@H]3c4cc(O)ccc4-c4c(O)cc(O)c1c4[C@H]23` [OHIOENSIN A]: the EC50 in assay [1] was more than 10 µg/mL; with A549, more than 10 µg/mL; with MCF7, 9 µg/mL (≈ 24.2 µM); in [2] it was 1 µg/mL (≈ 2.69 µM); in the assay with HT-29, more than 10 µg/mL.

In the case of `COc1cccc(C/C(=N/OS(=O)(=O)O)S[C@@H]2O[C@H](CO)[C@@H](O)[C@H](O)[C@H]2O)c1` [GLUCOLIMNANTHIN], the “inhibition (INH)” value in assay [3] turned out to be 71%.

`COc1cc(C2Oc3c(OC)cc4c(=O)c5c(OC)cccc5oc4c3OC2CO)ccc1O` (centres undefined): the EC50 in the assay on A549, in the assay with MCF7 and in the assay on HT-29 was more than 10 µg/mL throughout.

Turning to `CC(C)[C@H]1OC(=O)C=C2[C@@]13O[C@@H]3[C@H]1OC(=O)[C@@]3(C)C=CC[C@@]2(C)[C@@H]13` [PODOLIDE], in the assay with P388 [5], the T/C was 127%.

Take `COc1cc(O)c2c3c1-c1c(ccc(O)c1O)[C@@H]1Oc4ccccc4[C@@H](CC2=O)[C@@H]31` [OHIOENSIN D]: the EC50 in [1] was more than 10 µg/mL; with A549 it was more than 10 µg/mL; in the assay with MCF7 it was more than 10 µg/mL; in assay [2], 1 µg/mL (≈ 2.49 µM); in the assay with HT-29, more than 10 µg/mL.

In the case of `O=C1C[C@@H]2c3ccccc3O[C@H]3c4cccc(O)c4-c4c(O)cc(O)c1c4[C@H]23` [OHIOENSIN B], the EC50 in assay [1] is more than 10 µg/mL; in the assay with A549, 8 µg/mL (≈ 21.5 µM); in the assay with MCF7, 7 µg/mL (≈ 18.8 µM); in [2], 1 µg/mL (≈ 2.69 µM); in the assay on HT-29, more than 10 µg/mL.

As for `COc1ccc(-c2coc3cc(OC)cc(O)c3c2=O)cc1` [4',7-DIMETHOXY-5-HYDROXYGENISTEIN], the IC50 in [3] is more than 50 µg/mL.

On to `COc1cc2c(c3oc4c(O)cccc4c(=O)c13)C[C@H]([C@@]1(C)CO1)O2` [PSOROSPERMIN], for which the EC50 was 0.0016 µg/mL (≈ 0.0047 µM) in the assay with A549 and 0.012 µg/mL (≈ 0.0353 µM) in the assay on MCF7. For the same molecule, in the assay with HT-29, the ED50 is reported as more than 1 ×10⁻⁵ ug/ml.

For `COc1ccc(-c2coc3cc(O)cc(O)c3c2=O)cc1` [BIOCHANIN], the IC50 in [3] was determined as 25 µg/mL (≈ 87.9 µM). In addition, the “inhibition (INH)” value in assay [6] stood at 30%.

In the case of `CCCCCCCCCCCC[C@H](O)[C@@H]1CC[C@@H]([C@@H](O)CCCCC(=O)CCCCCC2CC(CC(C)=O)C(=O)O2)O1` (some centres undefined) [ISOANNONACINONE], the EC50 in the assay with A549 came to 0.07 µg/mL (≈ 0.118 µM); in [2], 0.5 µg/mL (≈ 0.841 µM); in the assay on HT-29, 0.009 µg/mL (≈ 0.0151 µM).

As to `C[S+]([O-])C[C@@](C)(O)[C@H]1OC(=O)C=C2[C@@]13O[C@@H]3[C@H]1OC(=O)[C@@]3(C)[C@H]4O[C@H]4C[C@@]2(C)[C@@H]13` (some centres undefined) [PODOLACTONE C], the T/C in the assay with P388 [4] was determined as 151%.

For the molecule `COc1cc(C2Oc3c(OC)cc4c(=O)c5ccccc5oc4c3OC2CO)cc(OC)c1O` (centres undefined), the EC50 in the assay with A549, in the assay on MCF7 and in the assay with HT-29 was more than 10 µg/mL each time.

For the molecule `COc1cc2c(c3oc4c(O)cccc4c(=O)c13)C[C@H]([C@](C)(O)COC(C)=O)O2`, the EC50 amounted to 2 µg/mL (≈ 5 µM) in the assay with A549, 2.5 µg/mL (≈ 6.24 µM) in the assay on MCF7 and 0.016 µg/mL (≈ 0.04 µM) with HT-29.

As for `COc1ccc(-c2coc3cc(OC)cc(OC)c3c2=O)cc1` [BIOCHANIN A, DIMETHYL ETHER], the IC50 in assay [3] was determined as 50 µg/mL (≈ 160 µM).

Take `O=c1c(-c2ccc(O)cc2)coc2cc(O)cc(O)c12` [GENISTEIN]: the IC50 in assay [3] amounted to 30 µg/mL (≈ 111 µM).

Take `CCCCCCCCCCCC[C@@H](O)[C@H]1CC[C@H]([C@H](O)CCCCC(=O)CCCCC[C@@H](O)CC2=C[C@H](C)OC2=O)O1` [ANNONACINONE]: the EC50 with A549 is 0.1 µg/mL (≈ 0.168 µM); in the assay on HT-29, 1 µg/mL (≈ 1.68 µM). Moreover, the ED50 in assay [2] worked out at 1 ×10⁻⁶ ug/ml.
